USRE48267E1, “Variants of C-type natriuretic peptide” (priority 2009, dated 2020)
Where a SMILES comes first, the peptide text is derived from it. Bridges are numbered along the chain shown (N, C = ends). The star is where a group is joined. MeO(CH2CH2O)23CH2CH2CO = COCCOCCOCCOCCOCCOCCOCCOCCOCCOCCOCCOCCOCCOCCOCCOCCOCCOCCOCCOCCOCCOCCOCCOCCC(=O)*

Legend:
[1] = molecular target: T1, NPR-B (Mus musculus, UniProt Q6VVW5); experiment: stimulation of cGMP production in NIH3T3 cells; format: cell-based, murine; details: NIH3T3 cells
T1 construct: Murine NIH3T3 cells express endogenously the CNP signaling receptor, NPR-B; endogenous in cells; host or cells: NIH3T3
T1 sequence (Q6VVW5 17-1047): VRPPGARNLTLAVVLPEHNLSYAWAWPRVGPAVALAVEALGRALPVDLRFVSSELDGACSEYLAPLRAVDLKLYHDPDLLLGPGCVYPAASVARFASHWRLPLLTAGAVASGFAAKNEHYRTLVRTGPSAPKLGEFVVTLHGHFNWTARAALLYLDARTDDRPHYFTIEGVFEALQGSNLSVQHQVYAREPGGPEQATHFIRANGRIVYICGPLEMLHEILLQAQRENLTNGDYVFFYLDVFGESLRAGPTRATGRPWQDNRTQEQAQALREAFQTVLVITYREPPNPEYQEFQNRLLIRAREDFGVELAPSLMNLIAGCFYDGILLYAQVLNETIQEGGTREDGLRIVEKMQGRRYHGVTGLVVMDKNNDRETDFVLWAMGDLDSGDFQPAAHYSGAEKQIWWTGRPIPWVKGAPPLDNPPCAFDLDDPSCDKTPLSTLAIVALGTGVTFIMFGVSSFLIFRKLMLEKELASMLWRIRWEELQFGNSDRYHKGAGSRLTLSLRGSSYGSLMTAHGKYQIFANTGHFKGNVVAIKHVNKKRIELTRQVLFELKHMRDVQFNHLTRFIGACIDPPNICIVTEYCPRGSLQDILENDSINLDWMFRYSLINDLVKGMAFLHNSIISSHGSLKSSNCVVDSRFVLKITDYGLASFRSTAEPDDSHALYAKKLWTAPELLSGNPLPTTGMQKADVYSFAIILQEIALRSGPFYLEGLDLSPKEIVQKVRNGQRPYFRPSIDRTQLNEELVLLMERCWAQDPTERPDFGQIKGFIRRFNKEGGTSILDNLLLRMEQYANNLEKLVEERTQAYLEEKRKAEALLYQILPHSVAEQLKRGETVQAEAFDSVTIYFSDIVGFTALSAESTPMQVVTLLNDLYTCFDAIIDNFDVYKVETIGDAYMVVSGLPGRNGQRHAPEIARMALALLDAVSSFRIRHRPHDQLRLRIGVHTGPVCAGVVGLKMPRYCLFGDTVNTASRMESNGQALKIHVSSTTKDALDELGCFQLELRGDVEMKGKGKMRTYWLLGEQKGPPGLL
Description: To determine the functional activity of CNP variants, the production of cGMP was measured in NIH3T3 cells exposed to the CNP variants. Murine NIH3T3 cells express endogenously the CNP signaling receptor, NPR-B, which shares 98% protein sequence identity with human NPR-B. NIH3T3 cells were cultured in high glucose Dulbecco's Modified Eagle Medium supplemented with 10% fetal calf serum and antibiotics at 37° C. with 5% CO2). Twenty four to 48 hours prior to signaling, cells were passaged to 12-well plates with a density of 2-5×10^5 cells per well at the time of the assay. CNP variants were resuspended in 1 mM HCl to a stock concentration of 1 mg/mL (455 uM for wtCNP22) and subsequently diluted to a 30 uM working stock solution with phosphate-buffered saline (PBS). Ten-fold serial dilutions were prepared in phosphate-buffered saline. Culture medium was removed from the cells and replaced with 0.4 mL PBS/Dulbecco's modified Eagle medium (50/50, v/v) containing 0.75 mM isobutylmethylxanine. Plates were incubated at 37° C., 5% CO2 for 15 minutes before addition of 0.2 mL CNP variant in PBS and continued incubation at 37° C. for 15 minutes. Reactions were stopped by the addition of 0.2 mL lysis buffer supplied with the CatchPoint cGMP assay kit (Molecular Devices), and cGMP production was determined with the CatchPoint cGMP Assay (Molecular Devices). All stimulation experiments were performed in duplicate.
Tables 1-4 summarize the ability of CNP variants having backbone or side chain modifications, amino acid substitutions, N-terminal amino acid extensions, and/or N-terminal PEGylation, respectively, to stimulate cGMP production in NIH3T3 cells. In all four tables, the values for cGMP production in NIH3T3 cells exposed to 10 nM or 1 uM CNP variant are normalized to cell number and cGMP production in the presence of 1 uM wtCNP22.

[2] = test system: cGMP; experiment: plasma cGMP concentration in rats; format: in vivo, rat
Description: Recombinant wild-type CNP22, CNP37 and PEO24-GANRR-CNP22 (K4R) (SEQ ID NO: 36) were evaluated.
Plasma cGMP concentrations in the sample at 5, 30, 60 and 90 minutes after i.v. dosing, or at 5, 30, 60, 120 and 180 minutes after s.c. dosing, were determined by the competitive RIA using anti-cGMP monoclonal antibody. Standard samples were prepared. 100 uL of the assay samples (standard solutions for the calibration curve or the diluted plasma samples for cGMP determination) were transferred to test tubes. Then 100 uL of anti-cGMP monoclonal antibody solution and 100 uL of ^125I-labeled succinyl cGMP tyrosine methyl ester solution were added to the tubes, respectively. All tubes were kept at 4° C. overnight. After the addition of 500 uL dextran charcoal solution, the tubes were vortexed and then placed on ice for 10 minutes. The reaction mixture was centrifuged and 500 uL of the supernatant was transferred from each sample to a new test tube. The amount of radiation (gamma line) in the supernatant was measured by a gamma-counter.

[3] = test system: FGFR3^ach mice; experiment: bone growth biomarkers in FGFR3^ach mice; format: in vivo, mouse; details: 200 nmol/kg s.c. daily, Day 36
Description: Plasma and serum were collected during the study. Harvested plasma was stored with 10× protease inhibitor at −80° C. until analysis. cGMP levels were measured 15 minutes post-injection on Day 36 from K2-ETDA plasma collection tubes. Fragments of cleaved collagen type II (cartilage-associated biomarkers), osteocalcin (bone-associated biomarker), and IgG (relating to immunogenicity) were measured from terminal bleed serum at the end of the study (Day 37). cGMP was measured using a commercially available ELISA kit (Cayman Chemical Co., Cat. No. 581021.1), cleaved collagen type II (Cartilaps) was measured using a commercially available kit from Immunodiagnostic Systems (Cat. No. 3CAL4000), and osteocalcin was measured using a commercially available kit from Biomedical Technologies Inc. (Stoughton, Mass.).

CC[C@H](C)[C@@H]1NC(=O)[C@H](CCCNC(=N)N)NC(=O)[C@H](CC(=O)O)NC(=O)[C@H](CC(C)C)NC(=O)[C@H](CCCCN)NC(=O)[C@H](CC(C)C)NC(=O)CNC(=O)[C@H](Cc2ccccc2)NC(=O)[C@@H](NC(=O)CNC(=O)[C@H](CCCNC(=N)N)NC(=O)[C@H](CO)NC(=O)[C@H](CC(C)C)NC(=O)CNC(=O)[C@H](CCCNC(=N)N)NC(=O)[C@H](CCCNC(=N)N)NC(=O)[C@H](CC(N)=O)NC(=O)[C@H](C)NC(=O)CNC(=O)CCOCCOCCOCCOCCOCCOCCOCCOCCOCCOCCOCCOCCOCCOCCOCCOCCOCCOCCOCCOCCOCCOCCOCCOC)CSSC[C@@H](C(=O)O)NC(=O)CNC(=O)[C@H](CC(C)C)NC(=O)CNC(=O)[C@H](CO)NC(=O)[C@H](CCSC)NC(=O)[C@H](CO)NC(=O)CNC1=O [PEO24-GANRR-CNP22(K4R)] ({MeO(CH2CH2O)23CH2CH2CO}-GANRRGLSRGCFGLKLDRIGSMSGLGC-OH; disulfide 11-27)
NPR-B stimulation activity / cGMP production compared with wtCNP22 (in words) [1]: stimulated greater cGMP production than PEO24-CNP22 and PEO24-CNP22 (K4R)
plasma levels of cGMP compared with CNP22 ([2]; i.v. 20 nmol/kg, at 30, 60 and 90 minutes): much higher plasma levels of cGMP
plasma concentrations of cGMP compared with CNP22 ([2]; s.c. 50 nmol/kg): substantially higher plasma concentrations of cGMP
cGMP plasma levels 15 minutes post-injection, compared to vehicle [3]: increase
